In patent US20050245399A1, “Pyrazole derivatives as herbicidal compositions containing them” (ISHIHARA SANGYO KAISHA, LTD., priority 2004, published 2005):

What was measured:
Type in all cases: in vivo
[1] = test system: barnyardgrass (Echinochloa crus-galli L.): ECHCG; test: Test Example 1 pre-emergence herbicidal activity, ECHCG; conditions: Rate 63 g a.i./ha, visually observed 20th to 23rd day after application
How it was run: (§1)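 Read-out: visual growth control (%, 0–100, 100 = complete kill) assessed 20 to 23 days post-treatment. Compound was applied pre-emergence by small sprayer, one day after sowing into upland soil pots, in 500 L/ha water.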

[2] = test system: crabgrass (Digitaria sanguinalis L.): DIGSA; test: Test Example 1 pre-emergence herbicidal activity, DIGSA; conditions: Rate 63 g a.i./ha, visually observed 20th to 23rd day after application
How it was run: as §1

[3] = test system: green foxtail (Setaria viridis L.): SETVI; test: Test Example 1 pre-emergence herbicidal activity, SETVI; conditions: Rate 63 g a.i./ha, visually observed 20th to 23rd day after application
How it was run: as §1

[4] = test system: redroot pigweed (Amaranthus retroflexus L.): AMARE; test: Test Example 1 pre-emergence herbicidal activity, AMARE; conditions: Rate 63 g a.i./ha, visually observed 20th to 23rd day after application
How it was run: as §1

[5] = test system: prickly sida (Sida spinosa L.): SEDSP; test: Test Example 1 pre-emergence herbicidal activity, SIDSP; conditions: Rate 63 g a.i./ha, visually observed 20th to 23rd day after application
How it was run: as §1

[6] = test system: velvetleaf (Abutilon theophrasti): ABUTH; test: Test Example 1 pre-emergence herbicidal activity, ABUTH; conditions: Rate 63 g a.i./ha, visually observed 20th to 23rd day after application
How it was run: as §1

[7] = test system: rice (Oryza sativa L.): ORYSA; test: Test Example 1 pre-emergence herbicidal activity, ORYSA; conditions: Rate 63 g a.i./ha, visually observed 20th to 23rd day after application
How it was run: as §1

[8] = test system: wheat (Triticum aestivum L.): TRZAX; test: Test Example 1 pre-emergence herbicidal activity, TRZAX; conditions: Rate 63 g a.i./ha, visually observed 20th to 23rd day after application
How it was run: as §1

[9] = test system: corn (Zea mays L.): ZEAMX; test: Test Example 1 pre-emergence herbicidal activity, ZEAMX; conditions: Rate 63 g a.i./ha, visually observed 20th to 23rd day after application
How it was run: as §1

[10] = test system: soybean (Glycine max Merr.): GLXMA; test: Test Example 1 pre-emergence herbicidal activity, GLXMA; conditions: Rate 63 g a.i./ha, visually observed 20th to 23rd day after application
How it was run: as §1

[11] = test system: barnyardgrass (Echinochloa crus-galli L.), ECHCG; test: Test Example 2 post-emergence (foliage treatment) herbicidal activity, ECHCG; conditions: 63 g a.i./ha
How it was run: (§2)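 Post-emergence, upland soil pots; leaf stage at spray: ECHCG 1.1-2.1 / DIGSA 1.0-2.0 / AMARE 0.1-1.5 / ORYSA 1.0-2. WP or EC formulation, set active ingredient rate, 500 L/ha water + 0.1% v/v spreader. Visual rating at d20-23, % control 0-100.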

[12] = test system: crabgrass (Digitaria sanguinalis L.), DIGSA; test: Test Example 2 post-emergence (foliage treatment) herbicidal activity, DIGSA; conditions: 63 g a.i./ha
How it was run: as §2

[13] = test system: green foxtail (Setaria viridis L.), SETVI; test: Test Example 2 post-emergence (foliage treatment) herbicidal activity, SETVI; conditions: 63 g a.i./ha
How it was run: (§3)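 Each species was evaluated for growth suppression by eye, 0% matching untreated and 100% meaning death, some 20 to 23 days after a single post-emergence foliar treatment applied in 500 L/ha of water carrying 0.1% (v/v) agricultural spreader.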

[14] = test system: redroot pigweed (Amaranthus retroflexus L.), AMARE; test: Test Example 2 post-emergence (foliage treatment) herbicidal activity, AMARE; conditions: 63 g a.i./ha
How it was run: as §2

[15] = test system: prickly sida (Sida spinosa L.), SIDSP; test: Test Example 2 post-emergence (foliage treatment) herbicidal activity, SIDSP; conditions: 63 g a.i./ha
How it was run: as §3

[16] = test system: velvetleaf (Abutilon theophrasti), ABUTH; test: Test Example 2 post-emergence (foliage treatment) herbicidal activity, ABUTH; conditions: 63 g a.i./ha
How it was run: as §3

[17] = test system: rice (Oryza sativa L.), ORYSA; test: Test Example 2 post-emergence (foliage treatment) herbicidal activity, ORYSA; conditions: 63 g a.i./ha
How it was run: as §2

[18] = test system: wheat (Triticum aestivum L.), TRZAX; test: Test Example 2 post-emergence (foliage treatment) herbicidal activity, TRZAX; conditions: 63 g a.i./ha
How it was run: as §3

[19] = test system: corn (Zea mays L.), ZEAMX; test: Test Example 2 post-emergence (foliage treatment) herbicidal activity, ZEAMX; conditions: 63 g a.i./ha
How it was run: as §3

[20] = test system: soybean (Glycine max Merr.), GLXMA; test: Test Example 2 post-emergence (foliage treatment) herbicidal activity, GLXMA; conditions: 63 g a.i./ha
How it was run: as §3

[21] = test system: barnyardgrass (Echinochiloa oryzicola: ECHOR); test: Test Example 3 water application herbicidal activity (paddy), ECHOR; conditions: 63 g a.i./ha, water application under submerged condition at 0.5 leaf stage, visually observed 14th day after application; 0 = untreated control, 100 = complete kill
How it was run: (§4)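 Compound, as diluted wettable powder or emulsifiable concentrate, was pipetted into flood water at a set active-ingredient dose. Weeds were treated at 0.5-leaf stage after sowing or tuber planting; 2-leaf rice 4 days post-transplant. Control scored visually, 0 untreated to 100 complete kill, weeds day 14, rice day 21.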

[22] = test system: japanese bulrush (Scirpus juncoides: SCPJO); test: Test Example 3 water application herbicidal activity (paddy), SCPJO; conditions: 63 g a.i./ha, water application under submerged condition at 0.5 leaf stage, visually observed 14th day after application; 0 = untreated control, 100 = complete kill
How it was run: as §4

[23] = test system: japanese ribbon wapato (Sagittaria pygmaea: SA GPY); test: Test Example 3 water application herbicidal activity (paddy), SAGPY; conditions: 63 g a.i./ha, water application under submerged condition, tubers planted, visually observed 14th day after application; 0 = untreated control, 100 = complete kill
How it was run: as §4

[24] = test system: rice (Oryza sativa L.: ORYSA); test: Test Example 3 water application herbicidal activity (paddy), transplanted rice ORYSA; conditions: 63 g a.i./ha, water application 4th day after transplantation of 2 leaf stage rice, visually observed 21st day after application; 0 = untreated control, 100 = complete kill
How it was run: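 Flooded paddy-soil pots in greenhouse; ECHOR and SCPJO sown, SAGPY tubers planted a day later, compound applied into 3–4 cm water at weeds' 0.5-leaf stage. Rice transplanted at 2-leaf stage, treated day 4 after transplanting. Visual growth control 0–100% at 14 days (weeds) and 21 days (rice) after application.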

Row | Structure (SMILES) | Pre-emergence Herbicidal Activity ECHCG (growth controlling degree) [1] | Pre-emergence Herbicidal Activity DIGSP (growth controlling degree) [2] | Pre-emergence Herbicidal Activity SETVI (growth controlling degree) [3] | Pre-emergence Herbicidal Activity AMARE (growth controlling degree) [4] | Pre-emergence Herbicidal Activity SIDSP (growth controlling degree) [5] | Pre-emergence Herbicidal Activity ABUTH (growth controlling degree) [6] | Pre-emergence Herbicidal Activity ORYSA (growth controlling degree) [7] | Pre-emergence Herbicidal Activity TRZAX (growth controlling degree) [8] | Pre-emergence Herbicidal Activity ZEAMX (growth controlling degree) [9] | Pre-emergence Herbicidal Activity GLXMA (growth controlling degree) [10] | growth controlling degree, ECHCO [11] | growth controlling degree, DIGSP [12] | growth controlling degree, SETVI [13] | growth controlling degree, AMARE [14] | growth controlling degree, SIDSP [15] | growth controlling degree, ABUTH [16] | growth controlling degree, ORYSA [17] | growth controlling degree, TRZAX [18] | growth controlling degree, ZEAMX [19] | growth controlling degree, GLXMA [20] | other results
1 | COc1c(Cl)cc(F)c(-c2nn(C)c(OC(F)F)c2Cl)c1NC(=O)C(C)Oc1ccccc1 (stereo not drawn) [Compound 1-33] | 30% | 40% | 50% | 95% | 50% | 40% | 10% | 10% | 0% | 0% | 80% | 70% | 98% | 100% | 100% | 100% | 50% | 30% | 60% | 60% | growth controlling degrees (%) ECHOR [21]: 100%; growth controlling degrees (%) SCPJO [22]: 40%; growth controlling degrees (%) SAGPY [23]: 98%; growth controlling degrees (%) ORYSA [24]: 35%
2 | COCCOC(=O)Nc1c(OC)c(Cl)cc(F)c1-c1nn(C)c(OC(F)F)c1Cl [Compound 1-61] | 100% | 100% | 100% | 100% | 100% | 100% | 70% | 50% | 30% | 10% | 100% | 100% | 100% | 100% | 100% | 100% | 80% | 60% | 80% | 80% | growth controlling degrees (%) ECHOR [21]: 100%; growth controlling degrees (%) SCPJO [22]: 90%; growth controlling degrees (%) SAGPY [23]: 100%; growth controlling degrees (%) ORYSA [24]: 95%
3 | COc1c(Cl)cc(F)c(-c2nn(C)c(OC(F)F)c2Cl)c1NC(=O)COc1ccc(Cl)cc1 [Compound 1-35] | 20% | 50% | 80% | 100% | 20% | 20% | 40% | 20% | 0% | 0% | 80% | 70% | 95% | 100% | 100% | 100% | 60% | 40% | 60% | 80% | growth controlling degrees (%) ECHOR [21]: 100%; growth controlling degrees (%) SCPJO [22]: 70%; growth controlling degrees (%) SAGPY [23]: 60%; growth controlling degrees (%) ORYSA [24]: 30%
4 | COc1c(Cl)cc(F)c(-c2nn(C)c(OC(F)F)c2Cl)c1NC(=O)COc1ccccc1 [Compound 1-15] | 70% | 100% | 100% | 100% | 60% | 60% | 40% | 30% | 10% | 30% | 90% | 70% | 100% | 100% | 100% | 100% | 80% | 50% | 50% | 50% | growth controlling degrees (%) ECHOR [21]: 100%; growth controlling degrees (%) SCPJO [22]: 90%; growth controlling degrees (%) SAGPY [23]: 98%; growth controlling degrees (%) ORYSA [24]: 50%
5 | COc1c(Cl)cc(F)c(-c2nn(C)c(OC(F)F)c2Cl)c1NC(=O)C(C)C [Compound 1-3] | 100% | 100% | 100% | 100% | 100% | 100% | 80% | 40% | 50% | 20% | 70% | 95% | 100% | 100% | 100% | 100% | 80% | 40% | 70% | 80% | growth controlling degrees (%) ECHOR [21]: 100%; growth controlling degrees (%) SCPJO [22]: 98%; growth controlling degrees (%) SAGPY [23]: 100%; growth controlling degrees (%) ORYSA [24]: 80%
6 | Cn1nc(-c2c(F)cc(Cl)c(OC(F)F)c2NC=O)c(Cl)c1OC(F)F [Compound 1-82] | 100% | 100% | 100% | 100% | 100% | 100% | 80% | 60% | 40% | 10% | 100% | 100% | 100% | 100% | 100% | 100% | 70% | 60% | 70% | 90% | growth controlling degrees (%) ECHOR [21]: 100%; growth controlling degrees (%) SCPJO [22]: 98%; growth controlling degrees (%) SAGPY [23]: 100%; growth controlling degrees (%) ORYSA [24]: 60%
